Results published in patent publication US20250177396A1, “POLO-LIKE KINASE 4 (PLK4) INHIBITORS, PHARMACEUTICAL COMPOSITIONS, METHODS OF PREPARATION AND USES THEREOF” (Repare Therapeutics Inc., priority 2022, published 2025).

Molecular target: T1, PLK4 (Homo sapiens, UniProt O00444)
T1 construct: expressed in transfected cells; host or cells: HEK293 T cells (ATCC CRL-3216)
T1 sequence (O00444 1-970): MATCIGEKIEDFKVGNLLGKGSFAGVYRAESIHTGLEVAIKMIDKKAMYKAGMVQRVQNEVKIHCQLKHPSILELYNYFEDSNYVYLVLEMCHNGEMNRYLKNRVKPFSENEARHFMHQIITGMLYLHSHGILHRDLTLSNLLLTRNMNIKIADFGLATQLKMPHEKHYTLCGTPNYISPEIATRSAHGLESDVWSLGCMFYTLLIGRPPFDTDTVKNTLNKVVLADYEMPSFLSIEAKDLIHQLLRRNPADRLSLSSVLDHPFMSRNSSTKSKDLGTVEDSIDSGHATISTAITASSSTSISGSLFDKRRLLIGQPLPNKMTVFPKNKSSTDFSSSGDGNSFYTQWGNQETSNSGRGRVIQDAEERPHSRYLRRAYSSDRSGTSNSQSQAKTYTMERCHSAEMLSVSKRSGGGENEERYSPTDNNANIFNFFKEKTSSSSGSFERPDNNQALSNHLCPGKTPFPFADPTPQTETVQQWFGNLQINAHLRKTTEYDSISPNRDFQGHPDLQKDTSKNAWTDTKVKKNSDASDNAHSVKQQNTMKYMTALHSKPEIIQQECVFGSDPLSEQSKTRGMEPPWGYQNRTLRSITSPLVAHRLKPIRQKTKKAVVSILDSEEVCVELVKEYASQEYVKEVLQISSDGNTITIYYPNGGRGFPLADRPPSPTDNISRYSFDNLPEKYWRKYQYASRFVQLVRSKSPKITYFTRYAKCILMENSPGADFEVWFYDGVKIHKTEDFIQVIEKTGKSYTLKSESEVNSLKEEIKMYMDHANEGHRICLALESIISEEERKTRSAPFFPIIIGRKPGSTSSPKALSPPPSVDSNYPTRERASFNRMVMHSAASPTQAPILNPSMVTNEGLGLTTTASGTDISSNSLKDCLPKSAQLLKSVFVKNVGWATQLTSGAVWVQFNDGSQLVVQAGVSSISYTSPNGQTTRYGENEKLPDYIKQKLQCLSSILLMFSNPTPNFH
Test: PLK4 NanoBRET target engagement assay
Format: binding
Conditions: HEK293 T cells transfected with PLK4 NanoLuc fusion vector; K-5 tracer; 2 hrs incubation
Protocol: To determine the affinity of Compounds described herein in the PLK4 NanoBRET target engagement assay, HEK293 T cells (ATCC Product Number CRL-3216) are first transfected with the PLK4 NanoLuc fusion vector DNA and Transfection carrier DNA using the Fugene HD Transfection reagent in Opti-MEM No Phenol Red buffer. After an overnight incubation in a 37° C./5% CO2 incubator, the transfected HEK293 T cells are trypsinized, counted, and resuspended in Opti-MEM No Phenol Red buffer at a concentration of 200000 cells/mL. White 96-well plates are then plated with 85 μL of cells (17000 cells/well) to which 5 μL of the 20×K-5 tracer solution diluted in tracer dilution buffer is added. Finally, 10 μL of the 10× compounds are added and the plates and then incubated in a 37° C./5% CO2 incubator for 2 hrs. After the incubation, a 50 uL 3× solution of the substrate/inhibitor mix is added to the cells. The plate is then transferred in the Envision plate reader where the Acceptor emission (610 nm) and the Donor emission (450 nm) are measured.
The IC50 of compounds is determined as follows: • 1. The ratio between the Acceptor emission (610 nm)/Donor emission (450 nm) is calculated. • 2. This ratio is then multiplied by 1000 to obtain the mBRET units (multiplying by 1000 is an arbitrary step that simply makes the data easier to interpret; it has no impact on the data set itself) • 3. The mBRET units are then used in Scigilian Analyze software (https://analyze.scigilian.io) to determine the IC50 value using a 4-parameter fit analysis.

Structure (SMILES)	IC50 [µM]
COCCN(c1nc(Nc2cc(C)[nH]n2)c(OC)c(-c2cnn(C)c2)n1)c1ccc(S(C)(=O)=O)cc1F [Compound 88]	0.29
Cc1cc(Nc2nc(N(C)c3c(F)cc(N4CCOC4=O)cc3F)nc(-c3cn(C)cn3)c2C2CC2)n[nH]1 [Compound 353]	0.006
Cc1cc(Nc2nc(N(C)c3c(F)cc(S(C)(=O)=O)cc3F)nc(-c3cnc4cccnn34)c2C2CC2)n[nH]1 [Compound 267]	0.006
[2H]C([2H])([2H])OCc1nc(-c2nc(N(C)c3c(F)cc(S(C)(=O)=O)cc3F)nc(Nc3cc(C)[nH]n3)c2C2CC2)cn1C [Compound 237]	0.005
Cc1cc(Nc2nc(N(C)c3c(F)cc(S(C)(=O)=O)cc3F)nc(-c3cn(C)c(CO)n3)c2C2CC2)n[nH]1 [Compound 167]	0.03
Cc1cc(Nc2nc(N(C)c3c(F)cc(S(C)(=O)=O)cc3F)nc(C3CC3)c2C2CC2)n[nH]1 [Compound 138]	0.16
Cc1cc(Nc2nc(N(C)c3c(F)cc(S(C)(=O)=O)cc3F)nc(-c3cn[nH]c3C(C)C)c2C2CC2)n[nH]1 [Compound 352]	0.003
CN(c1nc(Nc2cc(C3CC3)[nH]n2)c(C2CC2)c(-c2cn(C)cn2)n1)c1c(F)cc(S(C)(=O)=O)cc1F [Compound 228, 5-cyclopropyl-N^4-(5-cyclopropyl-1H-pyrazol-3-yl)-N^2-(2,6-difluoro-4-(methylsulfonyl)phenyl)-N^2-methyl-6-(1-methyl-1H-imidazol-4-yl)pyrimidine-2,4-diamine]	0.003
Cc1cc(Nc2nc(N(C)c3c(F)cc(S(C)(=O)=O)cc3F)nc(-c3cnn([C@H]4CC[C@H](O)CC4)c3)c2C2CC2)n[nH]1 [Compound 193]	0.003
Cc1cc(Nc2nc(N(C)c3c(F)cc(S(C)(=O)=O)cc3F)nc(N3CCO[C@H](C(F)(F)F)C3)c2C2CC2)n[nH]1 [Compound 299]	0.18
COc1c(Nc2cc(C)[nH]n2)nc(N(C)c2ccc3c(c2)CCS3(=O)=O)nc1-c1cnn(C)c1 [Compound 68]	1
Cc1cc(Nc2nc(N(C)c3c(F)cc(S(C)(=O)=O)cc3F)nc(-c3cc(C(F)F)n(C)n3)c2C2CC2)n[nH]1 [Compound 163]	0.011
Cc1cc(Nc2nc(N(C)c3c(F)cc(S(C)(=O)=O)cc3F)nc(Nc3cc(C)[nH]n3)c2C2CC2)n[nH]1 [Compound 313]	0.018
Cc1cc(Nc2nc(N(C)c3c(F)cc(S(C)(=O)=O)cc3F)nc(-c3cn(C)c(C(=O)N(C)C)n3)c2C2CC2)n[nH]1 [Compound 293]	0.014
COCCn1cc(-c2nc(N(C)c3cc(F)c(S(C)(=O)=O)cc3F)nc(Nc3cc(C)[nH]n3)c2C2CC2)nc1C [Compound 224]	0.013
Cc1cc(Nc2nc(N(C)c3cc(F)c(S(C)(=O)=O)cc3F)nc(-c3cn(C(C)C)cn3)c2C2CC2)n[nH]1 [Compound 200]	0.008
Cc1cc(Nc2nc(N(C)c3c(F)cc(S(C)(=O)=O)c(Cl)c3F)nc(-c3cnn(C)c3)c2C2CC2)n[nH]1 [Compound 120]	0.019
Cc1cc(Nc2nc(N(C)c3cc(F)c(S(C)(=O)=O)cc3F)nc(-c3ccn(C)n3)c2C2CC2)n[nH]1 [Compound 133]	0.018
Cc1cc(Nc2nc(N(C)c3c(F)cc(S(C)(=O)=O)cc3F)nc(-c3cnn4c3COCC4)c2C2CC2)n[nH]1 [Compound 182]	0.011
Cc1cc(Nc2nc(N(C)c3c(F)cc(S(C)(=O)=O)cc3F)nc(-c3ccn(C)c(=O)c3)c2C2CC2)n[nH]1 [Compound 205]	0.022

Second part, the molecule after the results:

IC50 [µM]	Structure (SMILES)
0.018	COCCn1cc(-c2nc(N(C)c3ccc(S(C)(=O)=O)cc3F)nc(Nc3cc(C)[nH]n3)c2C2CC2)c(C)n1 [Compound 219]
0.023	CNC(=O)Cn1cc(-c2nc(N(C)c3c(F)cc(S(C)(=O)=O)cc3F)nc(Nc3cc(C)[nH]n3)c2C2CC2)cn1 [Compound 171]
0.4	COc1c(Nc2cc(C)[nH]n2)nc(Oc2ccc(S(C)(=O)=O)cc2F)nc1-c1cnn(C)c1 [Compound 9, 2-(2-fluoro-4-(methylsulfonyl)phenoxy)-5-methoxy-N-(5-methyl-1H-pyrazol-3-yl)-6-(1-methyl-1H-pyrazol-4-yl)pyrimidin-4-amine]
0.22	COc1c(Nc2cc(C)[nH]n2)nc(N(C)c2ccc(S(C)(=O)=O)c(Cl)c2F)nc1-c1cnn(C)c1 [Compound 117]
0.008	Cc1cc(Nc2nc(N(C)c3c(F)cc(S(C)(=O)=O)cc3F)nc(-c3cnn(C)c3N3CCCC3=O)c2C2CC2)n[nH]1 [Compound 304]
1.1	COc1c(Nc2cc(C)[nH]n2)nc(Oc2ccc(S(C)(=O)=O)cc2Br)nc1-c1cnn(C)c1 [Compound 33]
0.073	Cc1cc(Nc2nc(N(C)c3ccc(S(C)(=O)=O)cc3F)nc(-c3cnn(C)c3)c2OC2CC2)n[nH]1 [Compound 344, 5-cyclopropoxy-N^2-(2-fluoro-4-(methylsulfonyl)phenyl)-N^2-methyl-N^4-(5-methyl-1H-pyrazol-3-yl)-6-(1-methyl-1H-pyrazol-4-yl)pyrimidine-2,4-diamine]
0.005	Cc1cc(Nc2nc(N(C)c3c(F)cc(S(=O)(=O)C4CC4)cc3F)nc(-c3cn(C)cn3)c2C2CC2)n[nH]1 [Compound 347]
0.016	Cc1cc(Nc2nc(N(C)c3c(F)cc(S(C)(=O)=O)cc3F)nc(-c3cnn(C)c3C(O)C(F)(F)F)c2C2CC2)n[nH]1 (centres unmarked) [Compound 305]
0.048	Cc1cc(Nc2nc(N(C)c3c(F)cc(S(C)(=O)=O)cc3F)nc(-c3cn(C)nc3C(=O)N(C)C)c2C2CC2)n[nH]1 [Compound 252]
> 5	Cc1cc(Nc2nc(N(C)c3ccc(S(C)(=O)=O)cc3F)nc(-c3ccn(C)n3)c2C(C)C)n[nH]1 [Compound 60]
0.06	Cc1cc(Nc2nc(N(C)c3c(F)cc(S(C)(=O)=O)cc3F)nc(N3Cc4cnn(C)c4C3)c2C2CC2)n[nH]1 [Compound 271]
0.004	COCCn1ncc(-c2nc(N(C)c3c(F)cc(S(C)(=O)=O)cc3F)nc(Nc3cc(C)[nH]n3)c2C2CC2)c1C [Compound 161]
0.038	Cc1cc(Nc2nc(N(C)c3c(F)cc(S(C)(=O)=O)cc3F)nc(-c3cn(C(CO)CO)nc3C)c2C2CC2)n[nH]1 [Compound 177]
0.011	Cc1cc(Nc2nc(N(C)c3c(F)cc(S(C)(=O)=O)cc3F)nc(-c3cnn(CC(=O)N(C)C)c3)c2C2CC2)n[nH]1 [Compound 170]
0.053	Cc1cc(Nc2nc(N(C)c3c(F)cc(S(C)(=O)=O)cc3F)cc(-c3cnn(C)c3)c2C2CC2)n[nH]1 [Compound 92]
0.004	Cc1cc(Nc2nc(N(C)c3c(F)cc(S(C)(=O)=O)cc3F)nc(-c3cnn(CC#N)c3)c2C2CC2)n[nH]1 [Compound 206]
> 5	Cc1cc(Nc2nc(N(C)c3c(F)cc(CC(=O)N(C)C)cc3F)nc(-c3cn(C)cn3)c2C2CC2)n[nH]1 [Compound 361]
0.011	Cc1cc(Nc2nc(N(C)c3c(F)cc(S(C)(=O)=O)cc3F)nc(-c3cnc(C)o3)c2C2CC2)n[nH]1 [Compound 156]
0.033	Cc1cc(Nc2nc(N(C)c3c(F)cc(S(C)(=O)=O)cc3F)nc(N3CCC[C@@H]3C#N)c2C2CC2)n[nH]1 [Compound 332]
0.007	Cc1cc(Nc2nc(N(C)c3cc(F)c(S(C)(=O)=O)cc3F)nc(-c3cn(C)nc3C)c2C2CC2)n[nH]1 [Compound 159]
0.005	CCc1cc(Nc2nc(N(C)c3c(F)cc(S(C)(=O)=O)cc3F)nc(-c3cnn(C)c3)c2C2CC2)n[nH]1 [Compound 258]
0.003	Cc1cc(Nc2nc(N(C)c3c(F)cc(S(C)(=O)=O)cc3F)nc(-c3cn(CCF)c(C)n3)c2C2CC2)n[nH]1 [Compound 229]
0.62	COc1c(Nc2cc(C)[nH]n2)nc(Oc2ccc(N(C)S(C)(=O)=O)cc2)nc1-c1cnn(C)c1 [Compound 31]
